Molecules are shown by their SMILES.

These results are taken from paper doi:10.1101/2020.07.22.215434v1 (biorxiv, 2020).

What all share (test): whole-cell patch clamp
Holding throughout (assay type): cell-based

For assay [1], the target named is T1, hCav 3.2 (Homo sapiens, UniProt O95180). Particulars: tonic block, step -100 to -30 mV, 5 mM Ba2+, pH 7.4, room temperature.
The target of assay [2] is T1, hCav 3.2. Particulars: read-out: % inhibition at 10 μM.
In the next assay the target is hCav 3.1 (Homo sapiens, UniProt O43497). Particulars: tonic block, step -100 to -30 mV, 5 mM Ba2+, pH 7.4, room temperature.
hCav 3.1, sequence (O43497 whole entry): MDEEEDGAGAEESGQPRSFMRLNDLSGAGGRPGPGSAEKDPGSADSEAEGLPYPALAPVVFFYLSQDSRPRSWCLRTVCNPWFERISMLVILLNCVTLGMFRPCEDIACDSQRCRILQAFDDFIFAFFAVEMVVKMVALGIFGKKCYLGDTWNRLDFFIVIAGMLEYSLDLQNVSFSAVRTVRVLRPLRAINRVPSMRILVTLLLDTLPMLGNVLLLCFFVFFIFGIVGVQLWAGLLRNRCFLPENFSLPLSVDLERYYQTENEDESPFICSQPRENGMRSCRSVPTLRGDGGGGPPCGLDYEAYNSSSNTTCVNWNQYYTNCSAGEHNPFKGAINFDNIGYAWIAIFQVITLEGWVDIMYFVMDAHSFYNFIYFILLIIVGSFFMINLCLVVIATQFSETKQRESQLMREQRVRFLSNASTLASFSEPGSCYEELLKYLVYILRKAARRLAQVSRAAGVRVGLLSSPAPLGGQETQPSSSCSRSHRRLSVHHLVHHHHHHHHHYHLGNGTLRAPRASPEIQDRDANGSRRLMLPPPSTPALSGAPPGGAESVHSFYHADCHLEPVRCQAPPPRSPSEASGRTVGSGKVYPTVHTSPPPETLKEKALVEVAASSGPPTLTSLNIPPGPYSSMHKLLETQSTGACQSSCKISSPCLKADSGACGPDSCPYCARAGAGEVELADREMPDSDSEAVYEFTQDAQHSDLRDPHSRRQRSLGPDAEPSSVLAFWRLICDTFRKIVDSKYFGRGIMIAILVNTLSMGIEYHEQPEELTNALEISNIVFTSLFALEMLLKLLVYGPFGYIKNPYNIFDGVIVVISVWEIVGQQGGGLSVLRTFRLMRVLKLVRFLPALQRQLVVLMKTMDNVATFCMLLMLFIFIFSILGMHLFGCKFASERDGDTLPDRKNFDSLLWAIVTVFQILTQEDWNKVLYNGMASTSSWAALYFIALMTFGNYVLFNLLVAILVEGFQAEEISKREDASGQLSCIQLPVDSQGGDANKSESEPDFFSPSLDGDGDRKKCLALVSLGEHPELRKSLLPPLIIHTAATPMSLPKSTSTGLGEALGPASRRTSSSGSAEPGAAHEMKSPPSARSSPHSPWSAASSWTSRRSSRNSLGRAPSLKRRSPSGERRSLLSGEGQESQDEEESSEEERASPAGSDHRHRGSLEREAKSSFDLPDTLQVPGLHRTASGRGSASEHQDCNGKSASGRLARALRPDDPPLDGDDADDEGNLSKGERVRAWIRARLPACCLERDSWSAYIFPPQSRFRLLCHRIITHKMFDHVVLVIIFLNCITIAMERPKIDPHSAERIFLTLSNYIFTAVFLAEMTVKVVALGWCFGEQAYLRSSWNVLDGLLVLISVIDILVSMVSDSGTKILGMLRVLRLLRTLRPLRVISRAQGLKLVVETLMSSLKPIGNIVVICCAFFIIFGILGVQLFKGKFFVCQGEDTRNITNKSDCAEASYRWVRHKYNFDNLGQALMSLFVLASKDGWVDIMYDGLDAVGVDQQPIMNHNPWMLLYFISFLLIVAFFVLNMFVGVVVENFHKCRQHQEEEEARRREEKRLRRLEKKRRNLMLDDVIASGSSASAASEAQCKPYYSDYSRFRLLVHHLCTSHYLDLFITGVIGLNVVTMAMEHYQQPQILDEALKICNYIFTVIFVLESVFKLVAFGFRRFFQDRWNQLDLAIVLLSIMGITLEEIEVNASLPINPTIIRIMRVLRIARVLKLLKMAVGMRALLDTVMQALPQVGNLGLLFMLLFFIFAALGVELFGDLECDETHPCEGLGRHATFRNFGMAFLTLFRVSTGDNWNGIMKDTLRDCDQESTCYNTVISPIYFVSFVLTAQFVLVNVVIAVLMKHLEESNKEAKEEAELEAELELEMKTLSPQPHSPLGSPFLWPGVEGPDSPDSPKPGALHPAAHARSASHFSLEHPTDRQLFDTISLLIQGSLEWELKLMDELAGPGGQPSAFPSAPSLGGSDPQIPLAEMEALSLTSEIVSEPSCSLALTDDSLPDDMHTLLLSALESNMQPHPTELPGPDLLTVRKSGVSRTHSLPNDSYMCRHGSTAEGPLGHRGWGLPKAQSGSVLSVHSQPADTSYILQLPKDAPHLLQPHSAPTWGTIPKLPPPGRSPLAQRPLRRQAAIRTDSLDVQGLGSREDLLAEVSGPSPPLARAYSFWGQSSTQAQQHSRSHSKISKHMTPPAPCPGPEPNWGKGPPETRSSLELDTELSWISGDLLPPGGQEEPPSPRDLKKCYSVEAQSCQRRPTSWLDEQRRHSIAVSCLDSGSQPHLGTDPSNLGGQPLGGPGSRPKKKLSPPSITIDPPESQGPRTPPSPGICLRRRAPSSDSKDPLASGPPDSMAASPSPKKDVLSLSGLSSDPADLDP

T1 sequence (O95180 whole entry): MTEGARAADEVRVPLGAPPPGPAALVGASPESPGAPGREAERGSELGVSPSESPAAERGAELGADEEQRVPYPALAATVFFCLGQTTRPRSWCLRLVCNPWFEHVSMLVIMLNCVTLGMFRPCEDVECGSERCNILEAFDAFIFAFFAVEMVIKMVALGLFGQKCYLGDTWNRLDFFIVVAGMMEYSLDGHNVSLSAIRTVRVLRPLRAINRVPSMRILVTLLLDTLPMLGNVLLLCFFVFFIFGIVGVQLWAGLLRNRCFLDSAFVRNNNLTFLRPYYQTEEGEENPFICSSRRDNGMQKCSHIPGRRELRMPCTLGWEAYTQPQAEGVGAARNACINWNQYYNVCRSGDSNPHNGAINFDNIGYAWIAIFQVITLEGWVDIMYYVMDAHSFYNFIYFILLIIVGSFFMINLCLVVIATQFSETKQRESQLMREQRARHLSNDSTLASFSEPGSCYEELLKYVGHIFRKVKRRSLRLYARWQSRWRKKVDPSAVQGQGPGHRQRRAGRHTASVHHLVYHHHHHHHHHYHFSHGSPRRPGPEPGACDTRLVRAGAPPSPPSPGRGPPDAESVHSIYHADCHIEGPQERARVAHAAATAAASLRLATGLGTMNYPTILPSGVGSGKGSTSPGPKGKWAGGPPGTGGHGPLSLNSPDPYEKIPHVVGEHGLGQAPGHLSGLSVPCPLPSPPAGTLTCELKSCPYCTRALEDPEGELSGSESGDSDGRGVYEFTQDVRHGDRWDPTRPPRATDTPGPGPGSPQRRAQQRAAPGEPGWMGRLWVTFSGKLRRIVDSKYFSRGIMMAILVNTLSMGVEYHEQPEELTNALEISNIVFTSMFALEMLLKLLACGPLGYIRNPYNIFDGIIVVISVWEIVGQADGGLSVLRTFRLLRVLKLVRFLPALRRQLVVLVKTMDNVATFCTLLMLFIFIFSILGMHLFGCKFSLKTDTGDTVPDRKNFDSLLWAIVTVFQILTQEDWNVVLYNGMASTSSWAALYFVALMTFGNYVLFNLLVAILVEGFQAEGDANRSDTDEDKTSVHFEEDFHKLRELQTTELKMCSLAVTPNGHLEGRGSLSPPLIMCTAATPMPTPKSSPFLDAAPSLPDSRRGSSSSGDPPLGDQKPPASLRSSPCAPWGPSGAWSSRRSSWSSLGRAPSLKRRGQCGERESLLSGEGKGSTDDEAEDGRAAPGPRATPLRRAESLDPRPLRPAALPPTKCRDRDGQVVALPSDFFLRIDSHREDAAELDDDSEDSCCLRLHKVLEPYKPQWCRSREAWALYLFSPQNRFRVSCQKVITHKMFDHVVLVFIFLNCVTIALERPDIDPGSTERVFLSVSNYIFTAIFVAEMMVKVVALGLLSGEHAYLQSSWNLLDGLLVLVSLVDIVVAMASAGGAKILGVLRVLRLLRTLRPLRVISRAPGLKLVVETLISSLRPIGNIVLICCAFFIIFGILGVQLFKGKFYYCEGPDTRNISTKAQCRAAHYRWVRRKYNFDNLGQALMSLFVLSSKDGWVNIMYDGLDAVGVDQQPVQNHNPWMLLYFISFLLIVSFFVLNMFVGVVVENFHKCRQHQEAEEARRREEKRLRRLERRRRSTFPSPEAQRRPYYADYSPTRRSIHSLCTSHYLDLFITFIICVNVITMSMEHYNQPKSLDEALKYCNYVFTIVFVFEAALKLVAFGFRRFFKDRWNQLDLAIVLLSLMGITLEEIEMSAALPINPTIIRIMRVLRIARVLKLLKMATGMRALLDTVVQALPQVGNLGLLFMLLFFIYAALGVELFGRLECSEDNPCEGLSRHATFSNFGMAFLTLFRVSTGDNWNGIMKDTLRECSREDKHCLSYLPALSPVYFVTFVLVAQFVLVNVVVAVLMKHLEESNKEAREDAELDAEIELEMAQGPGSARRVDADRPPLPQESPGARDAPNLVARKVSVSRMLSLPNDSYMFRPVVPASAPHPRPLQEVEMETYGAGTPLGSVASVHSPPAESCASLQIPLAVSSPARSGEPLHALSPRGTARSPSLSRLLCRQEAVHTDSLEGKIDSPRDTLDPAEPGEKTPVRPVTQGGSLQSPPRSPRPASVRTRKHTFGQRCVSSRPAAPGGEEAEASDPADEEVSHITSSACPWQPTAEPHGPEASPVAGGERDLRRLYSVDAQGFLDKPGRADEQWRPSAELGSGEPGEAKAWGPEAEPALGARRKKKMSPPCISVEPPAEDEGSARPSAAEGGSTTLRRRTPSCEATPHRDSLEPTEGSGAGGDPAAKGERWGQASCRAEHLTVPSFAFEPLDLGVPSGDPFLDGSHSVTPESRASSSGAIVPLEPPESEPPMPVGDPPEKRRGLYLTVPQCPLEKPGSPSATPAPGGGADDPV

`COC(=O)C(NC(=O)c1nn(CC2CCCCC2)c2ccccc12)C(C)C` (centres unmarked) [AMB-CHMINACA, methyl 2-((1-(cyclohexylmethyl)-1H-indazole-3-carbonyl)amino)-3-methylbutanoate]: it took 740 ± 300 nM to reach half-maximal inhibition against hCav 3.2 [1] (IC50).

At hCav 3.2 [1], `COC(=O)C(NC(=O)c1cn(CC2CCCCC2)c2ccccc12)C(C)(C)C` (centres unmarked) [MDMB-CHMICA, methyl-2-[[1-(cyclohexylmethyl)indole-3-carbonyl]amino]-3,3-dimethylbutanoate] registered a 50% inhibitory concentration (IC50) of 1500 ± 200 nM.

On to `CCCCCc1cc(O)c2c(c1)OC(C)(C)[C@@H]1CCC(C)=C[C@@H]21` [Δ9-THC], for which the inhibition at 10 µM on hCav 3.2 [2] came to 43 ± 2.4%.

Regarding `C=C(C)[C@@H]1CCC(C)=C[C@H]1c1c(O)cc(CCCCC)cc1O` [CBD], the inhibition at 10 µM on hCav 3.2 [2] amounted to 57 ± 5%.

For the compound `COC(=O)[C@@H](NC(=O)c1nn(CC2CCCCC2)c2ccccc12)C(C)(C)C` [MDMB-CHMINACA], the “% inhibition at 10 μM” value on hCav 3.1 is on record as greater than 80%.
